Laboratory results taken from patent US20230240991A1, “PROTEOPHOSPHOLIPOSOMES HAVING HDL-TYPE VESICLES” (priority 2019, published 2023).

Test system: intact washed human platelets
Test: [3H]PAF radioligand binding to intact washed human platelets after preincubation with plasma fractions (FIG. 1)
Method: Washed intact human thrombocytes are protected with plasma fractions from healthy volunteers (n=3, means, ±1 S.D.).
The thrombocytes are further preincubated with dialyzed, delipidated plasma proteins (0.36 mg/ml), with purified VLDL-fractions (0.9 mg/ml), with IDL (0.02 mg/ml), with HDL (0.5 mg/ml) or with delipidated HSA (0.25%).
Washed thrombocytes are tested in the presence of thioether-2-acyl-glycero-phosphatidylcholines (500 nM) compared to controls.

Substance	total [3H]PAF binding (500 nM unlabeled PAF, n=3, control 22±3 fmol)	total binding of [3H]PAF (500 nM Thio-GPC, washed thrombocytes, compared to controls)
alkyl-acetyl-sn-glycero-phosphocholines [PAF]	6±2 fmol per 10^8 cells/ml	
thioether-2-acyl-glycero-phosphatidylcholines [Thio-GPC]		do not at all change
